Experimental data taken from patent US20220411449A1, “Method for Preparing Heteroleptic Triarylbismuthanes and Compounds Produced by the Same” (UNIVERSITY OF HAWAII, priority 2019, published 2022).
Converted amounts (≈) assume the structure as drawn.

Assays:
Escherichia coli = assay: Disk diffusion zone of inhibition; conditions: for Antibacterial activity against E. coli, in words: disk diffusion, at the concentration tested; for Zone of Inhibition, E. coli: disks with 1-5 μg compound/disk, positive control 30 μg Tetracycline, 22 hours at 37° C., LB agar
Staphylococcus aureus = assay: Disk diffusion zone of inhibition; conditions: for Antibacterial activity against S. aureus, in words: disk diffusion, at the concentration tested; for Zone of Inhibition, S. aureus: disks with 1-5 μg compound/disk, positive control 5 μg Novobiocin, 22 hours at 37° C., LB agar
S. aureus = assay: Minimum Inhibitory Concentration (MIC) determination, 96-well plates, OD600; conditions: for MIC, S. aureus: 24 hours at 37° C., compounds tested at 0-5 μg/mL in duplicate, Kanamycin 0-4 μg/mL
E. coli = assay: as above; conditions: for MIC, E. coli: 24 hours at 37° C., compounds tested at 0-40 μg/mL in duplicate, Kanamycin 0-4 μg/mL
[1] = test system: Vesicular Stomatitis Virus (Indiana strain); type: cell-based

Row | Structure (SMILES) | Antibacterial activity against E. coli, in words (Escherichia coli) | Zone of Inhibition, E. coli (Escherichia coli) [cm] | Antibacterial activity against S. aureus, in words (Staphylococcus aureus) | Zone of Inhibition, S. aureus (Staphylococcus aureus) | MIC (S. aureus; Staphylococcus aureus, 24 h, read-out: MIC, S. aureus) [µg/mL] | MIC (E. coli; Escherichia coli, 24 h, read-out: MIC, E. coli) [µg/mL] | MIC, S. aureus (S. aureus) | MIC, E. coli (E. coli) | % Plaque Reduction [1] [%] | zone of inhibition at 5 µg/disc (Staphylococcus aureus; Staphylococcus aureus, 22 h, read-out: Zone of Inhibition, S. aureus) [mm] | zone of inhibition at 30 µg/disc (Escherichia coli; Escherichia coli, 22 h, read-out: Zone of Inhibition, E. coli) [mm]
1 | Cc1cc[c]([Bi]([c]2ccc(C#N)cc2)[c]2ccc(C#N)cc2)cc1 [Compound 10] | little activity against E. coli | 0 | showed antibacterial activity against S. aureus | 0.9 cm |  |  |  |  |  |  | 
2 | NC[C@H]1O[C@H](O[C@H]2[C@H](O)[C@@H](O[C@H]3O[C@H](CO)[C@@H](O)[C@H](N)[C@H]3O)[C@H](N)C[C@@H]2N)[C@H](O)[C@@H](O)[C@@H]1O [Kanamycin, reference compound] |  |  |  |  | 0.0625 (≈ 0.129 µM) | 0.0625 (≈ 0.129 µM) |  |  |  |  | 
3 | [I][Bi]([c]1ccccc1)[c]1ccccc1 [Compound 18] | weaker antimicrobial activity against E. coli | 1.3 | most effective against S. aureus | 2.2 cm |  |  | 0.625 µg/mL | 10 µg/mL | 99.95 |  | 
4 | COc1cc[c]([Bi]([c]2ccccc2)[c]2ccc(OC)cc2)cc1 [Compound 7] | little activity against E. coli | 0 | showed antibacterial activity against S. aureus | 1.1 cm |  |  |  |  |  |  | 
5 | Cc1cc[c]([Bi]([c]2c(C)cc(C)cc2C)[c]2c(C)cc(C)cc2C)cc1 [Compound 11] | little activity against E. coli | 0 | showed antibacterial activity against S. aureus | 0.8 cm |  |  |  |  |  |  | 
6 | Cc1cc(C)[c]([Bi]([c]2ccc(C#N)cc2)[c]2c(C)cc(C)cc2C)c(C)c1 [Compound 13] | little activity against E. coli | 0 | showed antibacterial activity against S. aureus | 0.9 cm |  |  |  |  |  |  | 
7 | Cc1ccc(S(=O)(=O)[O][Bi]([O]S(=O)(=O)c2ccc(C)cc2)[c]2ccccc2)cc1 [Compound 16] |  | 1 |  | 1.8 cm |  |  | 0.625 µg/mL | 20 µg/mL | 81.8 |  | 
8 | Cc1cc[c]([Bi]([O]S(=O)(=O)c2ccc(C)cc2)[O]S(=O)(=O)c2ccc(C)cc2)cc1 [Compound 22] |  | 0 |  |  |  |  |  |  |  |  | 
9 | CO[C@@H]1[C@@H](OC(N)=O)[C@@H](O)[C@H](Oc2ccc3c(O)c(NC(=O)c4ccc(O)c(CC=C(C)C)c4)c(=O)oc3c2C)OC1(C)C [Novobiocin, reference compound] |  |  |  |  |  |  |  |  |  | 20 to 25 | 
10 | COc1cc[c]([Bi]([c]2ccc(C#N)cc2)[c]2ccc(C#N)cc2)cc1 [Compound 9] | little activity against E. coli | 0 | showed antibacterial activity against S. aureus | 1 cm |  |  |  |  |  |  | 
11 | Cc1cc[c]([Bi]([O]S(=O)(=O)c2ccc(C)cc2)[O]S(=O)(=O)c2ccc(C)cc2)cc1 [Compound 21] | weaker antimicrobial activity against E. coli | 1 | most effective against S. aureus | 1.5 cm |  |  | 1.25 μg/mL L | 40 µg/mL | 38.7 |  | 
12 | COc1cc[c]([Bi]([c]2ccccc2)[c]2ccccc2)cc1 [Compound 3] | little activity against E. coli | 0 | showed antibacterial activity against S. aureus | 1 cm |  |  |  |  |  |  | 
13 | Cc1ccc(S(=O)(=O)[O][Bi]([c]2ccccc2)[c]2ccccc2)cc1 [Compound 14] | weaker antimicrobial activity against E. coli | 1.3 | most effective against S. aureus | 2.1 cm |  |  | 0.625 µg/mL | 10 µg/mL | 29.7 |  | 
14 | Cc1cc(C)[c]([Bi]([I])[c]2c(C)cc(C)cc2C)c(C)c1 [Compound 23] | weaker antimicrobial activity against E. coli | 0.6 | most effective against S. aureus | 0.9-1.9 cm |  |  |  |  |  |  | 
15 | Cc1cc(C)[c]([Bi]([c]2ccccc2)[c]2ccccc2)c(C)c1 [Compound 5] | weaker antimicrobial activity against E. coli | 0 | most effective against S. aureus | 1.6 cm |  |  | 0.625 µg/mL | 40 µg/mL |  |  | 
16 | COc1cc[c]([Bi]([c]2ccc(C)cc2)[c]2ccc(OC)cc2)cc1 [Compound 12] | little activity against E. coli | 0 | showed antibacterial activity against S. aureus | 1 cm |  |  |  |  |  |  | 
17 | Cc1cc[c]([Bi]([O]S(=O)(=O)c2ccc(C)cc2)[c]2ccc(C)cc2)cc1 [Compound 19] | weaker antimicrobial activity against E. coli | 0.8 | most effective against S. aureus | 1.8 cm |  |  | 2.5 µg/mL | No inhibition | 76.6 |  | 
18 | COc1cc[c]([Bi]([c]2c(C)cc(C)cc2C)[c]2c(C)cc(C)cc2C)cc1 [Compound 2] | little activity against E. coli | 0 | showed antibacterial activity against S. aureus | 1 cm |  |  |  |  |  |  | 
19 | N#Cc1cc[c]([Bi]([c]2ccccc2)[c]2ccccc2)cc1 [Compound 6] |  | 0 |  | 0 cm |  |  |  |  |  |  | 
20 | COC(OC)c1cc[c]([Bi]([c]2ccccc2)[c]2ccccc2)cc1 [Compound 1] |  | 0 |  | 0 cm |  |  |  |  |  |  | 
21 | COC(=O)c1cc[c]([Bi]([c]2ccccc2)[c]2ccccc2)cc1 [Compound 4] |  | 0 |  | 0 cm |  |  |  |  |  |  | 
22 | Cc1cc(C)[c]([Bi]([c]2ccccc2)[c]2c(C)cc(C)cc2C)c(C)c1 [Compound 8] | little activity against E. coli | 0 | showed antibacterial activity against S. aureus | 1 cm |  |  |  |  |  |  | 
23 | CN(C)[C@@H]1C(O)=C(C(N)=O)C(=O)[C@@]2(O)C(O)=C3C(=O)c4c(O)cccc4[C@@](C)(O)[C@H]3C[C@@H]12 [Tetracycline, reference compound] |  |  |  |  |  |  |  |  |  |  | 18 to 25
